One data set has as its system Entamoeba histolytica. Put plainly: In vitro growth inhibition against Entamoeba histolytica. The format is functional, organism-based.
A short description of data set [1]: Inhibitory activity against Entamoeba histolytica pyrophosphate-dependent phosphofructokinase (PFK). It counts as functional.
Data set [2] in a line: Therapeutic index was expressed as ratio of LD50 for KB cell line to IC50 against Plasmodium falciparum. The format is cell-based. The settings on record: human, KB cells; read-out: TI.
The nature of another data set: in vitro. The conditions noted are these: human, KB cells (nasopharyngeal carcinoma).
Data set [3] can be described thus: Therapeutic index was expressed as ratio of LD50 for KB cell line to IC50 against Entamoeba histolytica. The format is cell-based. The conditions noted are these: human, KB cells; read-out: TI.
The test system of the next data set is Plasmodium falciparum. Put plainly: microbe, parasite or virus in culture.
The test system of data set [4] is Cricetinae gen. sp. Put plainly: Mean effect on amebic liver abscess (mg) formation in Entamoeba histolytica infected hamsters (treated at 10 mg/kg ip once a day for 5 days). It counts as functional, Cricetulus griseus. The conditions noted are these: route intraperitoneal.
Data set [5] relates to Cricetinae gen. sp. Put plainly: Percent decrease of normal liver weight (mg) in Entamoeba histolytica infected hamsters (treated at 10 mg/kg ip once a day for 5 days). The format is functional, Cricetulus griseus. The conditions noted are these: route intraperitoneal.
Data set [6] relates to Cricetinae gen. sp. Put plainly: Mean effect on normal liver weight (mg) in Entamoeba histolytica infected hamsters (treated at 10 mg/kg ip once a day for 5 days). The settings on record: route intraperitoneal. The format is functional, Cricetulus griseus.
For data set [7], the system named is Cricetinae gen. sp. Put plainly: Percent decrease of amebic liver abscess (mg) formation in Entamoeba histolytica infected hamsters (treated at 10 mg/kg ip once a day for 5 days). The format is functional. The settings on record: route intraperitoneal.

Description for Plasmodium falciparum: In vitro growth inhibition against Plasmodium falciparum
Description for in vitro: Toxicity evaluated against human nasopharyngeal carcinoma KB cell line

A word on the IC50: it is the midpoint of a concentration-inhibition curve. Low values mean greater potency, high ones weaker potency. For the compound `O=P(O)(O)C(O)(Cc1cccnc1)P(=O)(O)O` [RISEDRONIC ACID], the IC50 in the data set with Entamoeba histolytica is 73.5 µM; in [1] it was more than 3000 µM.
The term CC50 denotes the concentration that lowers cell viability or growth by half. A lower CC50 goes with harm at low concentration. As to `CCCCC(O)(P(=O)(O)O)P(=O)(O)O`, the selectivity ratio in [2] was more than 18.4. Also, in the data set on Entamoeba histolytica, the IC50 was more than 200 µM. The 50% cytotoxic concentration (CC50) in the data set “in vitro” was more than 1040 µM.
Consider `CCCCCCC(CCCC)C(O)(P(=O)(O)O)P(=O)(O)O` (centres undefined), for which the IC50 in the data set with Entamoeba histolytica was 12.4 µM; in the data set on Plasmodium falciparum, more than 200 µM; in data set [1], 1000 µM. The compound further registered a CC50 in the data set “in vitro” of 228 µM. In addition, the selectivity ratio in data set [3] came to 19.1.
Consider `O=P(O)(O)C(N1CCOCC1)P(=O)(O)O` [MORPHOLINOMETHYLENEDIPHOSPHONIC ACID], for which, in data set [2], the selectivity ratio came to 52.4. In addition, the IC50 in the data set on Entamoeba histolytica is more than 200 µM; with Plasmodium falciparum, 18.4 µM. This compound also came in with a CC50 in “in vitro” of 964 µM.
For `CN(CCCc1ccccc1)CCC(O)(P(=O)(O)O)P(=O)(O)O`, the selectivity ratio in [2] was 16.6; in data set [3] it was 8.4. The IC50 with Entamoeba histolytica stood at 45.1 µM; in the data set with Plasmodium falciparum, 22.8 µM. For the same compound, the CC50 in “in vitro” amounted to 379 µM.
With `CCN(CC)C(P(=O)(O)O)P(=O)(O)O` [(DIETHYLAMINO)METHYLENEDIPHOSPHONIC ACID], the selectivity ratio in [2] is 8.98; in [3], 12.9. Also, the results for the IC50 in the data set on Entamoeba histolytica and with Plasmodium falciparum were 62.6 µM and 90.1 µM, respectively.
On to `CN(CCOc1ccccc1)CCC(O)(P(=O)(O)O)P(=O)(O)O`, for which the results for the Mean effect in the data set on Cricetinae gen. sp. [4] and with Cricetinae gen. sp. [6] were 1058 mg and 2295 mg, respectively. For the same compound, the results for the IC50 with Entamoeba histolytica and with Plasmodium falciparum were 6.49 µM and 31.4 µM, respectively. The Decrease in the data set on Cricetinae gen. sp. [5] was 3%; in the data set on Cricetinae gen. sp. [7], -19%. In addition, it took 312 µM to reach half-maximal cytotoxicity in the data set “in vitro” (CC50).
Take `O=P(O)(O)C(Nc1ccc(Cl)nc1)P(=O)(O)O`: the IC50 with Entamoeba histolytica was 21.7 µM; with Plasmodium falciparum it was more than 200 µM. In “in vitro”, this compound came in with a CC50 of more than 992 µM. Further, the selectivity ratio in data set [3] was more than 45.7.
On to `CCCCc1ccc(NC(P(=O)(O)O)P(=O)(O)O)cc1`, for which the selectivity ratio in [2] stood at 8.89; in [3] it was 1.62. The IC50 with Entamoeba histolytica was determined as 172 µM; in the data set on Plasmodium falciparum, 31.3 µM. This compound yielded a 50% cytotoxic concentration (CC50) in “in vitro” of 278 µM.
Regarding `CCCCCNC(P(=O)(O)O)P(=O)(O)O` [(PENTYLAMINO)METHYLENEDIPHOSPHONIC ACID], the selectivity ratio in data set [2] is more than 240. Besides, the IC50 in the data set on Entamoeba histolytica is more than 200 µM; in the data set with Plasmodium falciparum, 4.8 µM. The compound further gave a CC50 in the data set “in vitro” of more than 1150 µM.
For `CCC(C)CNC(P(=O)(O)O)P(=O)(O)O` (centres undefined), the concentration for half-maximal inhibition (IC50) was 135 µM in the data set with Entamoeba histolytica and more than 200 µM in the data set with Plasmodium falciparum. Besides, in “in vitro”, the CC50 turned out to be 394 µM. Also, the selectivity ratio in data set [3] came to 2.92.
Regarding `CCCCCCCCCCCCCC(O)(P(=O)(O)O)P(=O)(O)O`, the selectivity ratio in [2] came out at 17.4; in [3] it was 0.5. Also, the figures for the IC50 with Entamoeba histolytica and in the data set on Plasmodium falciparum were 74 µM and 2.12 µM, respectively. In “in vitro”, this compound had a half-maximal cytotoxic concentration (CC50) of 36.8 µM.
On to `CC(C)(C)c1cc(NC(P(=O)(O)O)P(=O)(O)O)cc(C(C)(C)C)c1`, for which the half-maximal inhibitory concentration (IC50) was 19.2 µM in the data set with Entamoeba histolytica and more than 200 µM in the data set on Plasmodium falciparum. This compound also displayed a half-maximal cytotoxic concentration (CC50) in “in vitro” of 634 µM. Also, in data set [3], the selectivity ratio was determined as 33.
The matching figures for `O=P(O)(O)C(Nc1ccc(I)cn1)P(=O)(O)O`: 39.5 µM, more than 200 µM, 466 µM and 11.8.
Consider `CCCCCCNC(P(=O)(O)O)P(=O)(O)O` [(HEXYLAMINO)METHYLENEDIPHOSPHONIC ACID], for which the selectivity ratio in data set [2] was more than 17.1. The IC50 in the data set with Entamoeba histolytica was more than 200 µM; with Plasmodium falciparum it was 56.5 µM. Further, the CC50 in “in vitro” is more than 966 µM.
`CCCCCCCCNC(P(=O)(O)O)P(=O)(O)O` [(OCTYLAMINO)METHYLENEDIPHOSPHONIC ACID]: the results for the selectivity ratio in data set [2] and in data set [3] were 5.02 and 2.15, respectively. The figures for the IC50 (in the data set with Entamoeba histolytica; with Plasmodium falciparum; in data set [1]) were 31.1 µM, 13.3 µM and more than 3000 µM, respectively.
On to `O=P(O)(O)C(Nc1ccc(-c2ccccc2)cc1)P(=O)(O)O`, for which the selectivity ratio is 6.46 in data set [2] and 56.5 in data set [3]. For the same compound, the values for the IC50 in the data set on Entamoeba histolytica and with Plasmodium falciparum were 8.76 µM and 76.6 µM, respectively. In “in vitro”, this compound displayed a 50% cytotoxic concentration (CC50) of 495 µM.
As for `O=P(O)(O)C(NC1CCCC1)P(=O)(O)O` [(CYCLOPENTYLAMINO)METHYLENEDIPHOSPHONIC ACID], the IC50 in the data set with Entamoeba histolytica is 35.9 µM; with Plasmodium falciparum it was more than 200 µM. In the data set “in vitro”, the midpoint of cytotoxicity, the CC50, lay at 629 µM. The selectivity ratio in data set [3] amounted to 17.5.
Consider `O=P(O)(O)C(Nc1ccc(O)nc1)P(=O)(O)O`, for which the selectivity ratio in [2] turned out to be 1.3; in [3] it was 2.67. Besides, the IC50 in the data set with Entamoeba histolytica was determined as 96.1 µM; with Plasmodium falciparum, 197 µM. Moreover, half-maximal cytotoxicity in “in vitro” (CC50) was put at 257 µM.
The matching figures for `CCCCCCCCCCCCCCCC(O)(P(=O)(O)O)P(=O)(O)O`: more than 25.3, more than 16.6, 44 µM, 28.8 µM and more than 729 µM.
`Cc1cc(C)nc(NC(P(=O)(O)O)P(=O)(O)O)c1`: the 50% inhibitory concentration (IC50) in the data set with Entamoeba histolytica was 177 µM; in the data set on Plasmodium falciparum, more than 200 µM. The compound also gave a CC50 in “in vitro” of 633 µM. The selectivity ratio in [3] came out at 3.58.
For `CCCCCCc1ccc(NC(P(=O)(O)O)P(=O)(O)O)cc1`, the values for the selectivity ratio in data set [2] and in data set [3] were 8.06 and 2.83, respectively. In addition, the 50% inhibitory concentration (IC50) in the data set on Entamoeba histolytica was found to be 132 µM; in the data set with Plasmodium falciparum, 46.3 µM. The compound also had a CC50 in “in vitro” of 373 µM.
Consider `O=P(O)(O)C(O)(CSc1ccncc1)P(=O)(O)O`, for which, in data set [2], the selectivity ratio was more than 4.72. Further, the 50% inhibitory concentration (IC50) in the data set with Entamoeba histolytica was more than 200 µM. The compound further returned a CC50 in “in vitro” of more than 746 µM.
With `CN(CCCCc1ccccc1)CCC(O)(P(=O)(O)O)P(=O)(O)O`, the values for the Mean effect in the data set with Cricetinae gen. sp. [4] and in the data set on Cricetinae gen. sp. [6] were 94 mg and 1756 mg, respectively. In addition, the IC50 in the data set with Entamoeba histolytica is 23.4 µM; in the data set with Plasmodium falciparum, 2.9 µM. The Decrease in the data set on Cricetinae gen. sp. [5] was 26%; with Cricetinae gen. sp. [7], 89%. In the data set “in vitro”, this compound had a CC50 of more than 690 µM.
Turning to `CCCCCCCCCNC(P(=O)(O)O)P(=O)(O)O` [(NONYLAMINO)METHYLENEDIPHOSPHONIC ACID], the selectivity ratio in data set [2] was more than 8.18; in data set [3] it was more than 6.76. For the same compound, the IC50 in the data set on Entamoeba histolytica turned out to be 136 µM; in the data set with Plasmodium falciparum, 112 µM. In addition, the CC50 in the data set “in vitro” is more than 919 µM.
The matching figures for `CCCCCC(C)NC(P(=O)(O)O)P(=O)(O)O` (centres undefined): more than 9.64, more than 15.1, 65.3 µM, 103 µM and more than 989 µM.
In the case of `CN(CCc1ccccc1)CCC(O)(P(=O)(O)O)P(=O)(O)O`, the selectivity ratio in [2] is more than 22; in data set [3], more than 5.2. The concentration for half-maximal inhibition (IC50) in the data set on Entamoeba histolytica turned out to be 143 µM; in the data set with Plasmodium falciparum, 33.5 µM. The same compound showed a cytotoxic concentration (CC50) in “in vitro” of more than 739 µM.
In the case of `CCCCCCCCCCCC(O)(P(=O)(O)O)P(=O)(O)O`, the 50% inhibitory concentration (IC50) was 63.7 µM in the data set with Entamoeba histolytica, 1.07 µM in the data set with Plasmodium falciparum and 40 µM in data set [1].
On to `CC(C)N(C(C)C)C(P(=O)(O)O)P(=O)(O)O` [(DIISOPROPYLAMINO)METHYLENEDIPHOSPHONIC ACID], for which the IC50 in the data set on Entamoeba histolytica is 194 µM; in the data set on Plasmodium falciparum, more than 200 µM. The CC50 in the data set “in vitro” was 852 µM. In [3], the selectivity ratio was determined as 4.39.

These data come from ChEMBL document CHEMBL1148279, “Effects of bisphosphonates on the growth of Entamoeba histolytica and Plasmodium species in vitro and in vivo” (J Med Chem, 2004).
